Here are results for two compounds from patent publication US20230201207A1, “COMBINATION CANCER THERAPY USING N2-QUINOLINE OR ISOQUINOLINE SUBSTITUTED PURINE DERIVATIVES” (SHANGHAI HUAYU BIOTECHNOLOGY CO., LTD., priority 2020, published 2023).

For series [1] the following is noted: human, in vivo; cited from earlier work.
Series [2] in a line: Body weight and survival of CT-26 WT tumor-bearing BALB/c mice. It is filed as in vivo. To be noted: for Average body weight: Anti-m-PD-1 10 mg/kg I.P., Compound A 40 mg/kg P.O. The method, then: (§1) CT-26 WT cells were maintained at 37° C. in 5% CO2 in RPMI 1640 medium (10-040-CV, Corning cellgro) supplemented with 10% FBS (10270-106, GIBCO) and used before the 10th subculture. At Day 0, 45 BALB/c female mice, 5-6 weeks old, were each subcutaneously injected with about 200.0 μL. of the CT-26 WT cell medium containing about 5×10^5 cells.
(§2) At Day 9, 32 tumor-bearing mice were randomly allocated to four groups according to their tumor volumes, 8 mice per group. The rest were subject to euthanasia.
(§3) The four groups of animals were administered with an anti-m-PD-1 antibody (BE0146, BioXcell) in PBS (21-040-CVR, BioXcell) at 1.0 mg/mL, Compound A in saline at 4.0 mg/mL, the anti-m-PD-1 antibody in combination with Compound A, and the control vehicle (saline), respectively, at doses shown in Table 1 below.
(§4) Mice were observed every day for their physical conditions and activities, and mice body weight and tumor volume were measured every Tuesday, Thursday and Sunday. The tumor volume (V) was calculated as (length×width^2)/2.
(§5) At Day 23, mice were subject to euthanasia, from which tumors were collected, weighed and photographed. Mice body weights, tumor sizes and tumor weights were analyzed using the t-test in SPSS, and group differences were deemed statistically significant when the p-value was 0.05 or less.

Another series has as its system AKT. Put plainly: Inhibition of AKT phosphorylation. The series is classed as biochemical. An excerpt: (§6) FLT3 is a class III receptor tyrosine kinase and plays an important role in hematopoiesis and lymphocyte development. […] Wang et al found over 60% of 82 leukemia cell lines were FLT3 positive (Wang Y et al., (2006) Journal of Experimental Hematology 14(3): 446-449). […] Thus, the compounds of the disclosure with high inhibitory effect on FLT3 function may be good candidates for leukemia treatment.

Another series addresses PI3K β isoform (Homo sapiens, UniProt P42338).
In a further series the target is PI3K γ isoform (Homo sapiens, UniProt P48736). Description: PI3K isoform inhibition, γ isoform (method of CN104513254A).
Chain of PI3K γ isoform (P48736 whole entry, canonical isoform): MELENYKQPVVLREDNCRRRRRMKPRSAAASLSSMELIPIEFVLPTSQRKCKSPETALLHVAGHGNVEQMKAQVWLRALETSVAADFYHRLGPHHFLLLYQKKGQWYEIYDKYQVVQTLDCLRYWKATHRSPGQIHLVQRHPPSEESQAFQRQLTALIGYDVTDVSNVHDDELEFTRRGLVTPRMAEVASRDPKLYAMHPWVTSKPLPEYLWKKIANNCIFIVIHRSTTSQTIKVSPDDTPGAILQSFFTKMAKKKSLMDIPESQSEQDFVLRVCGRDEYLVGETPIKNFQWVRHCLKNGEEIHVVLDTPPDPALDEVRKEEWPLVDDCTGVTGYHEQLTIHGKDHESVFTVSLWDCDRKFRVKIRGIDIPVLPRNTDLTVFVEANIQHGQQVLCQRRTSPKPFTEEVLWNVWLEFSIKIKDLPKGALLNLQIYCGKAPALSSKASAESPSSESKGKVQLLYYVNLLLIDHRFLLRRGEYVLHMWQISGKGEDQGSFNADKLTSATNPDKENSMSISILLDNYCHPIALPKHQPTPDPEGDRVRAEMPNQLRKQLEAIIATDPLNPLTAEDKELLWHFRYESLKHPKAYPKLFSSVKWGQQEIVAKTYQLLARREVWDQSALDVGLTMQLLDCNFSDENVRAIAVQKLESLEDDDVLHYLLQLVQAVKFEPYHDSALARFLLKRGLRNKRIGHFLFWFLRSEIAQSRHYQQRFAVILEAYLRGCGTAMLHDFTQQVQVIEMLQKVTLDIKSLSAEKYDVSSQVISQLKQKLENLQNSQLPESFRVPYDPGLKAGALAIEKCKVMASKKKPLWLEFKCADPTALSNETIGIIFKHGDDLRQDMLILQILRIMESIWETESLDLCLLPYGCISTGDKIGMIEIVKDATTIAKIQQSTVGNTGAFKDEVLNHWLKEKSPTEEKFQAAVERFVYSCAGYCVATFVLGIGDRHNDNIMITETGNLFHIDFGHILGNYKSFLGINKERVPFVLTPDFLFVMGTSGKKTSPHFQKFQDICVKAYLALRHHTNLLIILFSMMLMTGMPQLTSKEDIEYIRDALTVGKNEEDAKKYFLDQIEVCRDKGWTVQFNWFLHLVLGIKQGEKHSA
The test system of the next series is CT-26 WT cells. Description: Anti-tumor effect in CT-26 WT tumor-bearing BALB/c mice. The series is classed as in vivo. As to conditions: for Average tumor size: Anti-m-PD-1 10 mg/kg I.P., Compound A 40 mg/kg P.O. The method, then:
as §1, §2, §3, §4, §5
Tumor growth inhibition (TGI) was calculated based on tumor weight or tumor volume. Further, Zheng-Jun Jin's Q value was calculated using the formula Q=EA+B/(EA+EB−EA×EB) to assess the combined effect of the anti-PD-1 antibody and Compound A, wherein EA+B, EA, and EB referred to the TGIs of the combination therapy, anti-PD-1 administration and Compound A administration, respectively. A Q value higher than 1.15 indicated a synergistic or additive effect.

In another series the test system is PDGFR. Put plainly: Inhibition of PDGFR phosphorylation. The series is classed as biochemical.
Source text: as §6

Another series deals with PI3K α isoform (Homo sapiens, UniProt P42336).
Chain of PI3K α isoform (P42336 whole entry, canonical isoform): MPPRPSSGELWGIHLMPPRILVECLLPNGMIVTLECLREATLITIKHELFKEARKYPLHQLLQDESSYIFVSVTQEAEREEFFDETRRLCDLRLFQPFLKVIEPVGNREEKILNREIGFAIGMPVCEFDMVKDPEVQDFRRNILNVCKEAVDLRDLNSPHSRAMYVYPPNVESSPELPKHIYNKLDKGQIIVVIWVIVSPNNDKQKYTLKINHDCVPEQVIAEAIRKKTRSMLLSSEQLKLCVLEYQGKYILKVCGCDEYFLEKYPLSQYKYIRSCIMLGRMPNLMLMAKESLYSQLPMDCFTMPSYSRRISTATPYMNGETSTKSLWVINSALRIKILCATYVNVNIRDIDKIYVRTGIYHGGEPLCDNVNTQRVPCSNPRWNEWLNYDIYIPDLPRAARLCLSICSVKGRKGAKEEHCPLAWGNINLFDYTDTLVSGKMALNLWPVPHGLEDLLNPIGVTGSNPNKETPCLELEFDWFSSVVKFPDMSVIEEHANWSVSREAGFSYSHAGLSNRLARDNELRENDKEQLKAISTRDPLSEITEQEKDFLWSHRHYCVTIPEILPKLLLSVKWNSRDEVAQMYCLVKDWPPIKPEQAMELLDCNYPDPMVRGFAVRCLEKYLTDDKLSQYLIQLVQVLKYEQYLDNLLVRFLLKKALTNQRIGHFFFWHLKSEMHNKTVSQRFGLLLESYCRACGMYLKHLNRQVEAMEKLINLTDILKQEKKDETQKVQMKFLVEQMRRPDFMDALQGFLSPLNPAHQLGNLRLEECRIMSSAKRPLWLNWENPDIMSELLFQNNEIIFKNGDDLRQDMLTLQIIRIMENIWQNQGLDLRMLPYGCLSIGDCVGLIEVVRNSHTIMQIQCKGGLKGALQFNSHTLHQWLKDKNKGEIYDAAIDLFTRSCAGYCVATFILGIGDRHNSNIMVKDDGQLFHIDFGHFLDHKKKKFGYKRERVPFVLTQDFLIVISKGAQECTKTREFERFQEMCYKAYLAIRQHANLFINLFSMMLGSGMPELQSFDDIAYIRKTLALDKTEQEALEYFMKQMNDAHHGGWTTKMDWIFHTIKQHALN
Chain of PI3K α isoform (P27986 whole entry partner, canonical isoform): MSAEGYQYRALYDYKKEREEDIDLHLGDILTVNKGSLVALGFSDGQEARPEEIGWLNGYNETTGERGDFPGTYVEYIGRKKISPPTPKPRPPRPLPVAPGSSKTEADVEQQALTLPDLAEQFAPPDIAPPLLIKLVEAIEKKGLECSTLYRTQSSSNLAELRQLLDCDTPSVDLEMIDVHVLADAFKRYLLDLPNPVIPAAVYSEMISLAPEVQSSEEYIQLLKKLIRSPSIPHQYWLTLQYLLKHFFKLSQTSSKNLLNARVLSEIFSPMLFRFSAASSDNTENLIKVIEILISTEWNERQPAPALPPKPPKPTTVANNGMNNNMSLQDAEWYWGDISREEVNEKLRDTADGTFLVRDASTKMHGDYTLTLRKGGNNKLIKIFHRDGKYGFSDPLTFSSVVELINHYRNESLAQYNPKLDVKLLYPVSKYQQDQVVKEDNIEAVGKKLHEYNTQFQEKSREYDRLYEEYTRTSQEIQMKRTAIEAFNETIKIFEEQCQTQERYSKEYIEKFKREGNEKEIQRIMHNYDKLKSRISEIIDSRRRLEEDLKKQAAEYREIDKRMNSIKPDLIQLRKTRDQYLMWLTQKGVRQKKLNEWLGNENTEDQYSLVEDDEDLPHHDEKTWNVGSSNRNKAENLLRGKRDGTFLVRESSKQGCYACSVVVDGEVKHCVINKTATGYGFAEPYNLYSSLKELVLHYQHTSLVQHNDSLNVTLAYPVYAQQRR

The term EC50 denotes the concentration that produces a half-maximal response. Lower therefore signals greater potency.

Chain of PI3K β isoform (P42338 whole entry, canonical isoform): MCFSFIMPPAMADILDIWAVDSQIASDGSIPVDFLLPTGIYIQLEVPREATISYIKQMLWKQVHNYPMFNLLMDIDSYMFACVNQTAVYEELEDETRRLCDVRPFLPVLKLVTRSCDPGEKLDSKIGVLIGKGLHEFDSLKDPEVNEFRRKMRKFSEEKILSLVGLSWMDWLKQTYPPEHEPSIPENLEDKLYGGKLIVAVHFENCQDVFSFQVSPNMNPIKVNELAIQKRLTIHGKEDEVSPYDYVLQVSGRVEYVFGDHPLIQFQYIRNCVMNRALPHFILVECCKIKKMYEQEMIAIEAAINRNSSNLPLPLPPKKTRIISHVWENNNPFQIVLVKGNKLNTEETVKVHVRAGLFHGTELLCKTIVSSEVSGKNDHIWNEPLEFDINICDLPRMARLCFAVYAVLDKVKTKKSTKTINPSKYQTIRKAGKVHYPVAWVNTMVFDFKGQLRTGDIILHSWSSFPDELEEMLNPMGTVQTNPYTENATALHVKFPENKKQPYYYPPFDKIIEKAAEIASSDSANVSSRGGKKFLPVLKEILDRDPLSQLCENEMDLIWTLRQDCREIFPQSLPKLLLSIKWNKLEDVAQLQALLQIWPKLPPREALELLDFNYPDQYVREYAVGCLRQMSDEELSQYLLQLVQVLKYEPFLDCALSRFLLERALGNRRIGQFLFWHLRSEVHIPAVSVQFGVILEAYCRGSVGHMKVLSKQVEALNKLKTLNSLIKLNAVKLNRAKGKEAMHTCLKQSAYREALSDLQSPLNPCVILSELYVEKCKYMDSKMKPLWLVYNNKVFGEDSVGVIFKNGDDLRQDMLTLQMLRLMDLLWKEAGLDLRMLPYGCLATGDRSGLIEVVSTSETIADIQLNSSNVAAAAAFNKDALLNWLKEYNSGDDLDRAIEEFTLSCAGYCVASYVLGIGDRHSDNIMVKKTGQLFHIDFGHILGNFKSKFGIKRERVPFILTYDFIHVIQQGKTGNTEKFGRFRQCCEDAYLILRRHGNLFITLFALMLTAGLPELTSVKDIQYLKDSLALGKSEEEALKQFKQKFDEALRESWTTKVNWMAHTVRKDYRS
Chain of PI3K β isoform (P27986 whole entry partner, canonical isoform): as the sequence (P27986 whole entry partner, canonical isoform) above

For the compound Ipilimumab, in series [1], the “Patients who experienced immune-related adverse effects” value was 64%.
Take `c1cnc2ccc(Nc3nc(NC4CC4)c4nc[nH]c4n3)cc2c1` [Compound A]: the Average body weight in series [2] (Day 9 (allocation)) came out at 15.59 g; in series [2] (Day 10), 15.16 g; in series [2] (Day 12), 15.86 g; in series [2] (Day 14) it was 15.91 g; in series [2] (Day 16), 16.46 g; in series [2] (Day 18) it was 16.75 g. In addition, the Average body weight was found to be 17.01 g in series [2] (Day 20), 17.72 g in series [2] (Day 22) and 18.15 g in series [2] (Day 23). For the same compound, the “Mice weight with the tumor weight deducted” value in series [2] (Day 23) is listed as 16.22 g. Further, the EC50 with AKT is around 100 nM; in the series on PDGFR, around 1000 nM. Also, on PI3K β isoform, the “EC50, PI3K β isoform inhibition” value is on record as “μM level”. Also, the “EC50, PI3K γ isoform inhibition” value at PI3K γ isoform was “μM level”. The Average tumor size was 176.94 mm^3 with CT-26 WT cells (Day 9 (allocation)); 272.49 mm^3 in the series on CT-26 WT cells (Day 10); 492.26 mm^3 in the series with CT-26 WT cells (Day 12); 672.51 mm^3 with CT-26 WT cells (Day 14); 876.22 mm^3 with CT-26 WT cells (Day 16); 1099.45 mm^3 with CT-26 WT cells (Day 18). Moreover, the Average tumor size in the series with CT-26 WT cells (Day 20) is reported as 1348.89 mm^3; with CT-26 WT cells (Day 22) it was 1698.25 mm^3; in the series with CT-26 WT cells (Day 23) it was 1870.89 mm^3. Besides, the “Tumor volume based TGI” value with CT-26 WT cells (Day 23) is reported as 19.35%. In addition, in the series on CT-26 WT cells (Day 23), the “Tumor weight based TGI” value amounted to 31.71%. For the same compound, the “Tumor weight, Average” value with CT-26 WT cells (group average at Day 23, 8 mice) is given as 1.93 g. In the series on CT-26 WT cells (individual tumor isolated at Day 23, Mouse no. 1), the “Tumor weight, Mouse no. 1” value is reported as 1.14 g. Besides, in the series with CT-26 WT cells (individual tumor isolated at Day 23, Mouse no. 2), the “Tumor weight, Mouse no. 2” value amounted to 2.11 g. Further, in the series with CT-26 WT cells (individual tumor isolated at Day 23, Mouse no. 3), the “Tumor weight, Mouse no. 3” value came to 2.11 g. In addition, in the series with CT-26 WT cells (individual tumor isolated at Day 23, Mouse no. 4), the “Tumor weight, Mouse no. 4” value worked out at 0.89 g. Also, the “Tumor weight, Mouse no. 5” value in the series on CT-26 WT cells (individual tumor isolated at Day 23, Mouse no. 5) worked out at 1.68 g. For the same compound, the “Tumor weight, Mouse no. 6” value in the series on CT-26 WT cells (individual tumor isolated at Day 23, Mouse no. 6) came out at 2.16 g. The “Tumor weight, Mouse no. 7” value in the series on CT-26 WT cells (individual tumor isolated at Day 23, Mouse no. 7) is on record as 2.73 g. Besides, the “Tumor weight, Mouse no. 8” value in the series on CT-26 WT cells (individual tumor isolated at Day 23, Mouse no. 8) came to 2.64 g. Besides, the “EC50, PI3K α isoform inhibition” value at PI3K α isoform was “μM level”.
